Data on 29 molecules can be found in ChEMBL document CHEMBL5154703, “Improved cyclobutyl nabilone analogs as potent CB1 receptor agonists” (Eur J Med Chem, 2022).

Each structure is given as a SMILES string. Activity calls are given as the source filed them. The calls are words filed in the database; no cut-off is given here.

Experiment [1] deals with T1, Cannabinoid receptor 1 (Rattus norvegicus, UniProt P20272). The experiment in a line: Displacement of [3H]-CP-55,940 from CB1R in rat brain membranes measured by radioligand based competition binding assay. It counts as cell membranes, Membrane. On the technique in general: In a radioligand displacement assay an active substance lowers the binding of a labelled ligand.
T1 sequence (P20272 whole entry): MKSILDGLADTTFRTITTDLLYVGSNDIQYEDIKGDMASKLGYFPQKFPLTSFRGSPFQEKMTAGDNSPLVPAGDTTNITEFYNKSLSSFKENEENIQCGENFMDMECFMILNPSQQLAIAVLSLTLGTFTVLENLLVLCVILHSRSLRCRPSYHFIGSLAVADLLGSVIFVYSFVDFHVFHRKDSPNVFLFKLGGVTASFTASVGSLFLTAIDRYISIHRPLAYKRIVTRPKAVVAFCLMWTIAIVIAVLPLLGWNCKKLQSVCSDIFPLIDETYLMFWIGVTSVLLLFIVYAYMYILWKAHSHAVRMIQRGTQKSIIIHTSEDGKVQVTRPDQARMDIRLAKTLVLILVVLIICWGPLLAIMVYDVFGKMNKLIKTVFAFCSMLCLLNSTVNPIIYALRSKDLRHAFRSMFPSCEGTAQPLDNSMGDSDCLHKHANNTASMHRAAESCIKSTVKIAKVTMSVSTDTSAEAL

Experiment [2] deals with Cannabinoid receptor 1 (Rattus norvegicus) (UniProt P20272). Put plainly: Agonist activity at rat CB1 receptor expressed in HEK293 cells assessed as inhibition of forskolin-induced cAMP accumulation measured for 60 mins by Lance Ultra cAMP assay relative to control. The conditions noted are these: filed as agonist. It counts as functional, cell-based. In general terms: Cyclic AMP is a second messenger, typically raised through Gs and lowered through Gi signalling.
Sequence of Cannabinoid receptor 1 (Rattus norvegicus) (P20272 whole entry): as above

For experiment [3], the target named is T1, Cannabinoid receptor 1. The experiment in a line: Agonist activity at rat CB1 receptor expressed in HEK293 cells assessed as inhibition of forskolin-induced cAMP accumulation measured for 60 mins by Lance Ultra cAMP assay. It counts as functional, cell-based.
In experiment [4] the test system is Rattus norvegicus. The experiment in a line: Hypothermic effect in female Sprague-Dawley rat model assessed as reduction in body temperature at 0.01 to 10 mg/kg measured as ED50 after 30 to 360 mins. It counts as functional. The conditions noted are these: dose 0.01-10 mg/kg, time 30-360 min.
Experiment [5] deals with T2, Cannabinoid receptor 1 (Homo sapiens, UniProt P21554). The experiment in a line: Agonist activity at N-terminal 3HA-tagged human CB1 receptor expressed in CHO cells assessed as inhibition of forskolin-induced cAMP accumulation measured for 30 mins by FRET assay relative to control. The settings on record: filed as agonist. It counts as functional, cell-based.
T2 sequence (P21554 whole entry): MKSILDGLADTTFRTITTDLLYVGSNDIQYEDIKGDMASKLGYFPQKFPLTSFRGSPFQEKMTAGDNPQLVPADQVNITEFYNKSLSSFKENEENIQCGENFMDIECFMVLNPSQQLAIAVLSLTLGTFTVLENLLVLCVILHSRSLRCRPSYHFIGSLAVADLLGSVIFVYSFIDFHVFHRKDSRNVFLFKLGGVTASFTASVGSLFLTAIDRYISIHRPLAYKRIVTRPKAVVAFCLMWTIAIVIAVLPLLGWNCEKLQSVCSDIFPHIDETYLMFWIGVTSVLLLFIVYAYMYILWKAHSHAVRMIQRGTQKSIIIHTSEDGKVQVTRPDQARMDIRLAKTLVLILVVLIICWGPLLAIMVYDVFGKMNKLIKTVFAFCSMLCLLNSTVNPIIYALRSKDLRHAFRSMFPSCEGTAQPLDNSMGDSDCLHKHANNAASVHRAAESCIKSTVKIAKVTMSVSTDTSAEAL
The target in experiment [6] is T2, Cannabinoid receptor 1. Put plainly: Agonist activity at N-terminal 3HA-tagged human CB1 receptor expressed in CHO cells assessed as inhibition of forskolin-induced cAMP accumulation measured for 30 mins by FRET assay. The experiment is classed as functional, cell-based.
In experiment [7] the target is T2, Cannabinoid receptor 1. The experiment in a line: Agonist activity at human CB1 receptor expressed in CHO-K1 cells assessed as assessed as induction of beta-arrestin 2 recruitment measured for 90 mins by PathHunter assay relative to control. The experiment is classed as functional, cell-based. The conditions noted are these: filed as agonist. For orientation: Recruitment of arrestin is a read-out of receptor activation apart from second messengers.

In experiment [8] the target is T2, Cannabinoid receptor 1. The experiment in a line: Agonist activity at human CB1 receptor expressed in CHO-K1 cells assessed as assessed as induction of beta-arrestin 2 recruitment measured for 90 mins by PathHunter assay. The experiment is classed as functional, cell-based.
The test system of experiment [9] is Rattus norvegicus. The experiment in a line: Antinociceptive activity against female Sprague-Dawley rat model of thermal-induced nociception at 0.3 to 1 mg/kg assessed as increase in tail flick latency measured after 30 to 360 mins by tail flick test. The settings on record: dose 0.3-1 mg/kg, time 30-360 min. It counts as functional, organism-based.
For experiment [10], the system named is Rattus norvegicus. Put plainly: Hypothermic effect in female Sprague-Dawley rat model assessed as reduction in body temperature at 0.3 to 1 mg/kg after 90 mins. The experiment is classed as functional, organism-based. The conditions noted are these: dose 0.3-1 mg/kg.
The subject of experiment [11] is Rattus norvegicus. The experiment in a line: Hypothermic effect in female Sprague-Dawley rat model assessed as reduction in body temperature at 0.01 to 10 mg/kg measured after 30 to 360 mins. The experiment is classed as functional. The conditions noted are these: dose 0.01-10 mg/kg; time 30-360 min.
Experiment [12] has as its system Rattus norvegicus. The experiment in a line: Antinociceptive activity against female Sprague-Dawley rat model of thermal-induced nociception at 0.01 to 10 mg/kg measured after 30 to 360 mins by tail flick test. It counts as functional. The settings on record: dose 0.01-10 mg/kg, time 30-360 min.
The test system of experiment [13] is Rattus norvegicus. The experiment in a line: Hypothermic effect in female Sprague-Dawley rat model assessed as reduction in body temperature at 10 to 30 mg/kg after 30 to 360 mins. The experiment is classed as functional. The conditions noted are these: dose 10-30 mg/kg; time 30-360 min.

The Ki is the dissociation constant of the complex between target and ligand, obtained from inhibition or displacement. As usually defined, the Emax is the size of the effect at its maximum, as opposed to the concentration needed. One may read the EC50 as the concentration needed to bring the measured effect to its halfway point. Broadly, the ED50 is the dose at which the effect has come halfway, by size or by number of responders.

`CC1(C)Oc2cc(C3(CCCCN4CCOCC4)CCC3)cc(O)c2[C@@H]2CC(=O)CC[C@H]21` came in with a Ki in experiment [1] of 4 nM.

In turn, `CC1(C)Oc2cc(C3(CCCC#N)CCC3)cc(O)c2[C@@H]2C[C@H](O)CC[C@H]21` gave a Ki in experiment [1] of 4.6 nM.

Turning to `CC1(C)Oc2cc(C3(CCCBr)CCC3)cc(O)c2[C@@H]2C[C@H](O)CC[C@H]21`, in [1], the inhibitory constant (Ki) turned out to be 8.75 nM.

`CC1(C)Oc2cc(C3(CCCCN=[N+]=[N-])CCC3)cc(O)c2[C@@H]2C[C@H](O)CC[C@H]21`: in experiment [1], the inhibitory constant (Ki) is 0.57 nM.

In experiment [1], `CC1(C)Oc2cc(C3(CCCCCCBr)CCC3)cc(O)c2[C@@H]2CC(=O)CC[C@H]21` had a Ki of 0.46 nM.

Regarding `CC1(C)Oc2cc(C3(CCCCCN=[N+]=[N-])CCC3)cc(O)c2[C@@H]2C[C@@H](O)CC[C@H]21`, in experiment [1], the Ki is 0.92 nM.

The molecule `CC1(C)Oc2cc(C3(CCCCC#N)CCC3)cc(O)c2[C@@H]2CC(=O)CC[C@H]21` came in with a Ki in experiment [1] of 3.4 nM.

Consider `CC1(C)Oc2cc(C3(CCCBr)CCC3)cc(O)c2[C@@H]2CC(=O)CC[C@H]21`, for which affinity in experiment [1] was put at a Ki of 45.7 nM.

As to `CC1(C)Oc2cc(C3(CCCCBr)CCC3)cc(O)c2[C@@H]2C[C@H](O)CC[C@H]21`, in experiment [1], affinity was put at a Ki of 1.2 nM.

As for `CC1(C)Oc2cc(C3(CCCCN=C=S)CCC3)cc(O)c2[C@@H]2C[C@H](O)CC[C@H]21`, in [1], the affinity corresponds to a Ki of 1.45 nM.

Turning to `CC1(C)Oc2cc(C3(CCCCCCBr)CCC3)cc(O)c2[C@@H]2C[C@@H](O)CC[C@H]21`, the Ki in experiment [1] came out at 1 nM.

With `CC1(C)Oc2cc(C3(CCCCCN=C=S)CCC3)cc(O)c2[C@@H]2CC(=O)CC[C@H]21`, the Ki in [1] was found to be 4.91 nM.

In turn, `CC1(C)Oc2cc(C3(CCCCC#N)CCC3)cc(O)c2[C@@H]2C[C@@H](O)CC[C@H]21` came in with an inhibitory constant (Ki) in experiment [1] of 1.9 nM.

Regarding `CC1(C)Oc2cc(C3(CCCCCC#N)CCC3)cc(O)c2[C@@H]2C[C@H](O)CC[C@H]21`, affinity in experiment [1] was put at a Ki of 0.69 nM. Moreover, the Emax in [2] was found to be 108%. Besides, the EC50 in [3] turned out to be 3.9 nM.

As for `CCCCCCC(C)(C)c1cc(O)c2c(c1)OC(C)(C)C1CCC(=O)CC21` (stereo not given) [NABILONE], in experiment [4], the ED50 was 0.38 mg/kg.

For the molecule `CC1(C)Oc2cc(C3(CCCCN=[N+]=[N-])CCC3)cc(O)c2[C@@H]2C[C@@H](O)CC[C@H]21`, the Ki in [1] came out at 8.2 nM.

`CC1(C)Oc2cc(C3(CCCCN=[N+]=[N-])CCC3)cc(O)c2[C@@H]2CC(=O)CC[C@H]21`: the inhibition constant Ki in [1] was 11 nM.

Take `CC1(C)Oc2cc(C3(CCCCN4CCOCC4)CCC3)cc(O)c2[C@@H]2C[C@H](O)CC[C@H]21`: the affinity in experiment [1], expressed as Ki, was 1.1 nM.

In turn, `CC1(C)Oc2cc(C3(CCCCCN4CCOCC4)CCC3)cc(O)c2[C@@H]2CC(=O)CC[C@H]21` came in with a Ki in experiment [1] of 1.9 nM.

`CC1(C)Oc2cc(C3(CCCCCC#N)CCC3)cc(O)c2[C@@H]2C[C@@H](O)CC[C@H]21`: the affinity in experiment [1] corresponds to a Ki of 0.61 nM. Besides, the Emax in experiment [2] turned out to be 97%. The concentration for a half-maximal effect (EC50) in [3] was found to be 2 nM.

As for `CC1(C)Oc2cc(C3(CCCCCC#N)CCC3)cc(O)c2[C@@H]2CC(=O)CC[C@H]21`, the affinity in experiment [1], expressed as Ki, was 0.55 nM. Besides, the 50% effective dose (ED50) in experiment [4] came out at 0.16 mg/kg; in [12], 0.14 mg/kg. Also, the maximal effect (Emax) in [5] worked out at 94%; in experiment [2] it was 126%; in experiment [7], 93%. Moreover, the values for the concentration for a half-maximal effect (EC50) in [6], in experiment [8] and in experiment [3] were 1.4 nM, 7.5 nM and 8.6 nM, respectively. Also, the result in experiment [9] and in experiment [10] was Active. Further, in experiment [11], the T was 6 °C.

For the molecule `CC1(C)Oc2cc(C3(CCCCC#N)CCC3)cc(O)c2[C@@H]2C[C@H](O)CC[C@H]21`, the inhibition constant Ki in experiment [1] was determined as 0.55 nM.

On to `CC1(C)Oc2cc(C3(CCCCCCN4CCOCC4)CCC3)cc(O)c2[C@@H]2C[C@H](O)CC[C@H]21`, for which the Ki in experiment [1] is 43.9 nM.

Turning to `CC1(C)Oc2cc(C3(CCCCCN=[N+]=[N-])CCC3)cc(O)c2[C@@H]2CC(=O)CC[C@H]21`, the inhibitory constant (Ki) in experiment [1] is 0.66 nM.

For the molecule `CCCCCc1cc(O)c2c(c1)OC(C)(C)[C@@H]1CCC(C)=C[C@@H]21` [DRONABINOL], the T in experiment [13] was 2.8 °C. Also, the ED50 in [12] was determined as 1.3 mg/kg.

For the molecule `CC1(C)Oc2cc(C3(CCCCBr)CCC3)cc(O)c2[C@@H]2C[C@@H](O)CC[C@H]21`, in experiment [1], the Ki was 1.11 nM.

In experiment [1], `CC1(C)Oc2cc(C3(CCCCBr)CCC3)cc(O)c2[C@@H]2CC(=O)CC[C@H]21` had a Ki of 18 nM.

As to `CC1(C)Oc2cc(C3(CCCCN=C=S)CCC3)cc(O)c2[C@@H]2CC(=O)CC[C@H]21`, the inhibition constant Ki in experiment [1] is 8.2 nM.

In experiment [1], `CC1(C)Oc2cc(C3(CCCCCCBr)CCC3)cc(O)c2[C@@H]2C[C@H](O)CC[C@H]21` returned an inhibition constant Ki of 0.38 nM.
